The target in one data set is SARS-CoV-2 nsp3-mac1 (Severe acute respiratory syndrome coronavirus 2, UniProt P0DTD1). Briefly: biochemical. The settings on record: IC50, nsp3-mac1 activity, Figures 1-3 and text.
The subject of a further data set is SARS-CoV-2. Briefly: Antiviral effect in iPSC-derived pneumocyte system. The settings on record: iPSC pneumocytes SARS-CoV-2 antiviral effect; for perc_max_measured: maximum measured response of dose series. It counts as cell-based.
For the next data set, the system named is iPSC pneumocytes. Briefly: iPSC pneumocytes cytotoxicity. The format is cell-based. The settings on record: for perc_max_measured: highest measured response of the dose series; for perc_min_measured: lowest measured response of the dose series. An excerpt:
(§1) Supplement media-1.zip/Cytotoxicity.csv, table | column: cc10; cc50; perc_min_measured; perc_max_measured

The nature of another data set: in vitro. The settings on record: human.
In the next data set the test system is MDR1. Briefly: Permeability Papp (AB) MDR1/MDCKII. The settings on record: dog, MDCK-MDR1, papp_a_to_b_mean, In vitro MDR1-MDCKII permeability, A to B, mean.
In another data set the target is T1, human CHRM2 (M2) (Homo sapiens, UniProt P08172).
T1 construct: purchased Eurofins Cerep (SafetyScreen44), recognised from the panel format
T1 sequence (P08172 1-466): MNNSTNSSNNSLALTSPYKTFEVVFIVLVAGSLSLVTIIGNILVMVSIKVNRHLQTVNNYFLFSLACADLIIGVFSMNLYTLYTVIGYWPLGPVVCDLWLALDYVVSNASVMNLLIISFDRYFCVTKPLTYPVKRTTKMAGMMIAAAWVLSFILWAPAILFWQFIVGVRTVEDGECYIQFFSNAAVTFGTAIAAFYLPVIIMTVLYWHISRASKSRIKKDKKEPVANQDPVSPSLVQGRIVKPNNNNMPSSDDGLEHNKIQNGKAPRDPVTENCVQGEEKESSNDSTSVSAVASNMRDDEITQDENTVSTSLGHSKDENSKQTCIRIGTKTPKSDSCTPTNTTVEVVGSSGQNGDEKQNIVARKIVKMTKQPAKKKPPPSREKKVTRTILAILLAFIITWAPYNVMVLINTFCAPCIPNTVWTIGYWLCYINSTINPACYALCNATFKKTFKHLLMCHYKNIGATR
Briefly: Eurofins CEREP panel, M2. The format is binding. The settings on record: M2 (h) (antagonist radioligand); test compound concentration 10 uM.

Another data set concerns Vero E6/TMPRSS2. Briefly: Vero E6/TMPRSS2 cytotoxicity with P-gp inhibitor. It counts as cell-based. The settings on record: for perc_max_measured: highest measured response of the dose series; for perc_min_measured: lowest measured response of the dose series.
Text: as §1

For another data set, the target named is T2, beta1 (h) (Homo sapiens, UniProt P08588).
T2 construct: purchased Eurofins Cerep (SafetyScreen44), recognised from the panel format
In words: In vitro CEREP profiling, beta1 (h) (agonist radioligand). The settings on record: test compound 10 uM. The format is binding. An excerpt:
(§2) Supplement media-1.zip/Safety_Panel_Profile.csv, table | column: perc_inhibition

A further data set concerns BZD (central). Briefly: In vitro CEREP profiling, BZD (central) (agonist radioligand). The format is binding. The settings on record: test compound 10 uM.
Text: as §2

For the next data set, the system named is Na+ channel (site 2). In words: In vitro CEREP profiling, Na+ channel (site 2) (antagonist radioligand). It counts as binding. The settings on record: test compound concentration 10 uM.
Text: as §2

The target of the next data set is NaV1.5 (Homo sapiens, UniProt Q14524). In words: In vitro NaV1.5 cardiotoxicity. The settings on record: top test concentration 30 uM. An excerpt: Supplement media-1.zip/Cardiotoxicity.csv, table | column: ic50_rest_state; ic50_use_dep_block; perc_inhibition_rest_state; perc_inhibition_use_dep_block
The target of the next data set is T3, 5-HT transporter (h) (Homo sapiens, UniProt P31645).
T3 construct: purchased Eurofins Cerep (SafetyScreen44), recognised from the panel format
Briefly: In vitro CEREP profiling, 5-HT transporter (h) (antagonist radioligand). The settings on record: test compound concentration 10 uM. The format is binding.
Text: as §2

The mark [1] stands for this setting: protocol iPSC pneumocytes cytotoxicity.
Where [2] appears, read: NaV1.5, rest state, read-out: ic50_rest_state.
[3] abbreviates: NaV1.5, use dependent block, read-out: ic50_use_dep_block.

“And” between values parts separate entries of the source, which are not always exact repeats. Equal values may be shown once. Read-outs that look alike come from different tables or passages of the source. Where only a bound is given, the exact number is not on record here.

Sequence of NaV1.5 (Q14524 whole entry): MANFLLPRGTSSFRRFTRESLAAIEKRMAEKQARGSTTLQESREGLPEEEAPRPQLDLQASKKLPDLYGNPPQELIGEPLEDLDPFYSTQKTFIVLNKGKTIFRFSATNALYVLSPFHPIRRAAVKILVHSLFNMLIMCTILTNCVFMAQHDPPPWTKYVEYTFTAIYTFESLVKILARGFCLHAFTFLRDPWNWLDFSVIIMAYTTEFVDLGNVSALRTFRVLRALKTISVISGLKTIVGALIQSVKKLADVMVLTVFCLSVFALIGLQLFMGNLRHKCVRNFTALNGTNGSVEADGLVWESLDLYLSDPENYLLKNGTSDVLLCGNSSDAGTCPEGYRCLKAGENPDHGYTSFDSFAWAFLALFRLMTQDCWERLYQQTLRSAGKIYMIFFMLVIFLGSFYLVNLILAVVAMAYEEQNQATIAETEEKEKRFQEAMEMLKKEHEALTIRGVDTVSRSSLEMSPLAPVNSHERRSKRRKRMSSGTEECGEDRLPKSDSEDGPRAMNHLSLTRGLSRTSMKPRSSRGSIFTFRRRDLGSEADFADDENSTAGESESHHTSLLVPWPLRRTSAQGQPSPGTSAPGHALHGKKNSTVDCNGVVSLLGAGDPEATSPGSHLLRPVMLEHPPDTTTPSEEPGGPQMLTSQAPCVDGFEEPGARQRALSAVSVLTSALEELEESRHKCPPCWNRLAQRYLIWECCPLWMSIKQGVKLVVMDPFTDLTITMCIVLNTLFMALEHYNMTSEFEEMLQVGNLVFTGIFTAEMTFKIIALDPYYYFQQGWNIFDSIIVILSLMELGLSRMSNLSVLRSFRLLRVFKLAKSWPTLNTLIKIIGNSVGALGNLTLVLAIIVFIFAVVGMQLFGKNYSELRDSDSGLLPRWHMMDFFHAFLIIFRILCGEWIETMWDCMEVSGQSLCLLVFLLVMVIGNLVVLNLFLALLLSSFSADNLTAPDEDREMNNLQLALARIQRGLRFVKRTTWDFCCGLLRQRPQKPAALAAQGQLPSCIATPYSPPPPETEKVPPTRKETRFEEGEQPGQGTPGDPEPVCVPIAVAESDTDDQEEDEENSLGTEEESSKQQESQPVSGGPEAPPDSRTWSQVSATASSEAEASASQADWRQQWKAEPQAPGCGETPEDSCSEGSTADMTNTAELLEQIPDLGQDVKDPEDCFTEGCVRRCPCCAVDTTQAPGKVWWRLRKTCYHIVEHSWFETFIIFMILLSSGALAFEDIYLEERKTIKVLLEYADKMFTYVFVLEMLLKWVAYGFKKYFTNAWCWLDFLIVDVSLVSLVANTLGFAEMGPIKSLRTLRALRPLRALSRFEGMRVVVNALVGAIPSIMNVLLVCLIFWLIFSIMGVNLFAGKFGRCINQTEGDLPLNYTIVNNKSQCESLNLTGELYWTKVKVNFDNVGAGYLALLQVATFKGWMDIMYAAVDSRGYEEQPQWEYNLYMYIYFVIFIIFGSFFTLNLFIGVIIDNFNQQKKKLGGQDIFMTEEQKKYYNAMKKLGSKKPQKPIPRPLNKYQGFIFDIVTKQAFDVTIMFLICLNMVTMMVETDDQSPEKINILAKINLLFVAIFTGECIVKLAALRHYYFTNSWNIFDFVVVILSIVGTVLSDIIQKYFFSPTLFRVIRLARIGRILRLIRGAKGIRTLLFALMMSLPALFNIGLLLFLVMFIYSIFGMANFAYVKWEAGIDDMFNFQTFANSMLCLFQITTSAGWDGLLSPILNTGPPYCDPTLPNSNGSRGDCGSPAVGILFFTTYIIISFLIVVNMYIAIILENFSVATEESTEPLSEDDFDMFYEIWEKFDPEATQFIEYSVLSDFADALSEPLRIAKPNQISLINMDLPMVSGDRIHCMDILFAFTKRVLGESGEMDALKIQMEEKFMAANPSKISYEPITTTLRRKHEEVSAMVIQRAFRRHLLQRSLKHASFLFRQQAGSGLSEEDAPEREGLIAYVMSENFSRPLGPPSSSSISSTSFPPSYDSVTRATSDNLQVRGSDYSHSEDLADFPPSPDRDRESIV
T2 sequence (P08588 whole entry): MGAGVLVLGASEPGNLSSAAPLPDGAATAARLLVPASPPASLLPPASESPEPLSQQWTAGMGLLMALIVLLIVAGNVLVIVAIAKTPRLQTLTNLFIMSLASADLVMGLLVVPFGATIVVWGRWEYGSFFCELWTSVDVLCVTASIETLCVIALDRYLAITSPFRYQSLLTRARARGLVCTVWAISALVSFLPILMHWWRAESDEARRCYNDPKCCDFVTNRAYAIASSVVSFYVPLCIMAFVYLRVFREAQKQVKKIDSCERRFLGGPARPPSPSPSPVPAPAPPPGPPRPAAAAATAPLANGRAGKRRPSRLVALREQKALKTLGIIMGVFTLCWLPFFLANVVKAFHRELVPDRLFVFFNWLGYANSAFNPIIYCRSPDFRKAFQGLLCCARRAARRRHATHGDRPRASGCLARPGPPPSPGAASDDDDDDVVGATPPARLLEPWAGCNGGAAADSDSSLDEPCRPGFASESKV
T3 sequence (P31645 whole entry): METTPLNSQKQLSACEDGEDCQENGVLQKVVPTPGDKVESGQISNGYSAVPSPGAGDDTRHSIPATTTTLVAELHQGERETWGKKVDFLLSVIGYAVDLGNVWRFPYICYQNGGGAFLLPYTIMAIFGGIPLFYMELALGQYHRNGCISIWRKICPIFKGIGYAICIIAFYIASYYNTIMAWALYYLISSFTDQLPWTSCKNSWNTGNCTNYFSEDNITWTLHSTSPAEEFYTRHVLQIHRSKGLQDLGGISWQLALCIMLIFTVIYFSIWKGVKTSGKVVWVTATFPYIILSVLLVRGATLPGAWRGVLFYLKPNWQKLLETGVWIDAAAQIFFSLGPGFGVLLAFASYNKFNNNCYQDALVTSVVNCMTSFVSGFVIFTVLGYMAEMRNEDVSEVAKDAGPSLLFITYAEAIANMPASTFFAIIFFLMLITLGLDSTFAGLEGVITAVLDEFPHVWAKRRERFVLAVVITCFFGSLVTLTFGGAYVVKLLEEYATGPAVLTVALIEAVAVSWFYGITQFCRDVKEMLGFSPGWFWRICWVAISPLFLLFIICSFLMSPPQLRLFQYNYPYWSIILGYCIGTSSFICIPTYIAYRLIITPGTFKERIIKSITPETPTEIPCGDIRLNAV

In turn, `CC(C)C(Nc1ncnc2[nH]ccc12)c1ccc2c(c1)S(=O)(=O)CCC2` (centres unmarked) [ASAP-0008327] displayed an IC50 against SARS-CoV-2 nsp3-mac1 of 0.14 µM. In addition, in the data set on SARS-CoV-2 (Severe acute respiratory syndrome coronavirus 2, iPSC), the EC50 was > 50 µM. Besides, the EC90 in the data set on SARS-CoV-2 (Severe acute respiratory syndrome coronavirus 2) is > 50 µM. In the data set with SARS-CoV-2, the EC50 worked out at 29.9 µM; the perc_max_measured was 138.005% and 187.741%. Moreover, in the data set on iPSC pneumocytes (setting [1]), the cc10 is > 50.0 µM; the perc_max_measured is 97.729% and 94.012%; the perc_min_measured is 81.556% and 88.355%. In addition, in “in vitro”, the CC50 was > 50 µM. For the same compound, the apparent permeability from apical to basolateral (Papp A→B) in the data set with MDR1 was 3.3 ×10⁻⁶ cm/s.
For `CC(C)[C@H](Nc1ncnc2[nH]ccc12)c1ccc2c(c1)S(=O)(=O)CCC2` [ASAP-0008674], the “perc_inhibition (% inhibition of the binding of a ligand specific for each target)” value at human CHRM2 (M2) was 34%; on beta1 (h), 11%; with BZD (central) it was 4%; with Na+ channel (site 2), -5%. Moreover, the CC50 with Vero E6/TMPRSS2 was > 5 µM. Also, the cc10 in the data set on Vero E6/TMPRSS2 was > 5.0 µM. In the data set on Vero E6/TMPRSS2, the perc_max_measured is 135.379% and 119.601%. In addition, in the data set with Vero E6/TMPRSS2, the perc_min_measured was 95.549% and 105.983%. On NaV1.5 (NaV1.5, rest state), this compound returned a perc_inhibition_rest_state of 19.0%. Further, the IC50 at NaV1.5 (setting [2]) and on NaV1.5 (setting [3]) was > 30 µM in each case. The compound also displayed a perc_inhibition_use_dep_block on NaV1.5 (NaV1.5, use dependent block) of 29.0%.
On to `CC(C)[C@H](Nc1ncnc2[nH]c(-c3cnn(C)c3C#N)cc12)c1ccc2c(n1)OCCO2` [ASAP-0010715], for which the “perc_inhibition (% inhibition of the binding of a ligand specific for each target)” value was 18% on human CHRM2 (M2), 11% at beta1 (h), -2% in the data set with BZD (central) and 10% in the data set with Na+ channel (site 2). Besides, the CC50 in the data set with Vero E6/TMPRSS2 is > 5 µM. Moreover, the cc10 in the data set with Vero E6/TMPRSS2 is > 5.0 µM. The same compound showed a perc_max_measured in the data set on Vero E6/TMPRSS2 of 109.412%. In addition, the perc_min_measured in the data set on Vero E6/TMPRSS2 is reported as 72.414%. Also, on NaV1.5 (NaV1.5, rest state), the perc_inhibition_rest_state was determined as 33.0%. The IC50 at NaV1.5 (setting [2]) and at NaV1.5 (setting [3]) was > 30 µM throughout. For the same compound, the perc_inhibition_use_dep_block at NaV1.5 (NaV1.5, use dependent block) stood at 35.0%.
Regarding `CC(C)[C@@H](Nc1ncnc2[nH]c(-c3cnn(C)c3C#N)cc12)c1ccc2c(n1)OCCO2` [ASAP-0010716], the “perc_inhibition (% inhibition of the binding of a ligand specific for each target)” value is on record as 15% at human CHRM2 (M2), -2% on beta1 (h), 8% in the data set with BZD (central) and 12% in the data set with Na+ channel (site 2). Besides, the CC50 in the data set with Vero E6/TMPRSS2 was > 5 µM. Further, the cc10 in the data set with Vero E6/TMPRSS2 is > 5.0 µM. The same compound came in with a perc_max_measured in the data set on Vero E6/TMPRSS2 of 116.627%. In the data set on Vero E6/TMPRSS2, this compound displayed a perc_min_measured of 99.207%. Moreover, the perc_inhibition_rest_state on NaV1.5 (NaV1.5, rest state) worked out at 27.0%. Moreover, the IC50 on NaV1.5 (setting [2]) and at NaV1.5 (setting [3]) was > 30 µM in each case. Besides, the perc_inhibition_use_dep_block on NaV1.5 (NaV1.5, use dependent block) came to 25.0%.
For `CNCc1cc(-c2cc3c(N[C@@H](c4ccc5c(c4)S(=O)(=O)CCC5)C(C)C)ncnc3[nH]2)co1` [ASAP-0011176], in the data set with SARS-CoV-2, the EC50 was 3.34 µM. For the same compound, the 90% effect concentration (EC90) with SARS-CoV-2 was > 50 µM. For the same compound, the perc_max_measured worked out at 92.989% in the data set with SARS-CoV-2, 97.309% with iPSC pneumocytes and 117.999% in the data set with Vero E6/TMPRSS2. Besides, the values for the perc_min_measured in the data set on SARS-CoV-2 (minimum measured response of dose series), with iPSC pneumocytes and in the data set with Vero E6/TMPRSS2 were 2.106%, 86.868% and 102.841%, respectively. The “perc_inhibition (% inhibition of the binding of a ligand specific for each target)” value was 52% on human CHRM2 (M2), -4% on beta1 (h), 28% in the data set on BZD (central) and 19% in the data set with Na+ channel (site 2). Moreover, the CC50 is > 50 µM in the data set with iPSC pneumocytes and > 5 µM with Vero E6/TMPRSS2. The values for the cc10 with iPSC pneumocytes and in the data set on Vero E6/TMPRSS2 were > 50.0 µM and > 5.0 µM, respectively. This compound also showed a perc_inhibition_rest_state at NaV1.5 (NaV1.5, rest state) of 10.0%. For the same compound, the IC50 on NaV1.5 (setting [2]) and at NaV1.5 (setting [3]) was > 30 µM each time. Further, at NaV1.5 (NaV1.5, use dependent block), the perc_inhibition_use_dep_block was 16.0%.
As to `C[C@H](C(=O)O)[C@@H](NC(=O)c1ncnc2[nH]ccc12)c1ccc(Br)cc1` [ASAP-0014722], the “perc_inhibition (% inhibition of the binding of a ligand specific for each target)” value is -4% on human CHRM2 (M2); -5% at beta1 (h); -4% in the data set with BZD (central); 6% in the data set with Na+ channel (site 2); 0% on 5-HT transporter (h). For the same compound, in the data set on Vero E6/TMPRSS2, the CC50 was > 5 µM. Further, in the data set with Vero E6/TMPRSS2, the cc10 was > 5.0 µM. Moreover, the perc_max_measured in the data set on Vero E6/TMPRSS2 was 112.113%. Besides, the perc_min_measured in the data set with Vero E6/TMPRSS2 worked out at 82.421%. Besides, the perc_inhibition_rest_state on NaV1.5 (NaV1.5, rest state) turned out to be 18.0%. In addition, the IC50 on NaV1.5 (setting [2]) and at NaV1.5 (setting [3]) was > 30 µM each time. Also, the perc_inhibition_use_dep_block on NaV1.5 (NaV1.5, use dependent block) is 16.0%.
Turning to `COc1ccc([C@H](Cc2nnn[nH]2)NC(=O)c2ncnc3[nH]ccc23)cc1` [ASAP-0015381], the “perc_inhibition (% inhibition of the binding of a ligand specific for each target)” value at human CHRM2 (M2) was -12%; at beta1 (h), -3%; in the data set with BZD (central), 0%; in the data set on Na+ channel (site 2), -3%; on 5-HT transporter (h), -1%. Besides, the CC50 in the data set on Vero E6/TMPRSS2 was > 5 µM. Further, in the data set on Vero E6/TMPRSS2, the cc10 is > 5.0 µM. Besides, the perc_max_measured in the data set with Vero E6/TMPRSS2 worked out at 119.979%. In the data set on Vero E6/TMPRSS2, this compound had a perc_min_measured of 89.804%. This compound also returned a perc_inhibition_rest_state on NaV1.5 (NaV1.5, rest state) of 9.0%. In addition, the IC50 at NaV1.5 (setting [2]) and on NaV1.5 (setting [3]) was > 30 µM throughout. The compound further gave a perc_inhibition_use_dep_block at NaV1.5 (NaV1.5, use dependent block) of 8.0%.

(Values after article doi:10.1101/2024.08.19.608619, “Discovery of potent SARS-CoV-2 nsp3 macrodomain inhibitors uncovers lack of translation to cellular antiviral response” (bioRxiv, 2024).)
